From patent US20100284985A1, “Composition” (Danisco A/S, priority 2007, published 2010)

What was measured:
Test in all cases: MIC assay, LAE
[1] = test system: Lactobacilllus curvatus DCS 609; assay type: cell-based, Lactobacillus curvatus; conditions: Latilactobacillus curvatus, DCS609, ppm of the active component
Protocol: (§1) The Minimal Inhibition Concentration Assay (MIC) is a 96 well liquid based assay developed for a semi-automated assessment system and performed essentially as described in (7). […] From an overnight culture […] of each strain was inoculated in one well corresponding to an approximate inoculation density of 10^3-10^4 cells/well. Media used were CASO, MRS and YM (Appendix 1). Strains were incubated at 20° C., 25° C., 37° C. and under aerobic/anaerobic conditions depending on the preferred conditions for the particular strain (Appendix 1). At time zero, after adding the AM, the optical density (O.D.) of the bacterial culture is measured at 620 nm and then again after 24 hours. […] MIC is defined as the lowest concentration of the AM that will inhibit measurable growth. A bacteriostatic effect is defined as the OD620 at 24 h being less than or equal to 20% of the growth control.

[2] = test system: Citrobacter freundii DCS 566; assay type: cell-based
Protocol: as §1

[3] = test system: Debaryomyces hansenii DCS 605; assay type: cell-based
Protocol: as §1

[4] = test system: Klebsiella oxytoca DCS 567; assay type: cell-based
Protocol: as §1

[5] = test system: Candida tropicalis DCS 604; assay type: cell-based
Protocol: as §1

Hafnia alvei DCS 613 = assay type: cell-based
Protocol: as §1

[6] = test system: Bacillus licheniformis DCS 561; assay type: cell-based
Protocol: as §1

[7] = test system: Leuconostoc mesenteroides ss DCS 512; assay type: cell-based
Protocol: as §1

Bacillus cereus DCS 500 = assay type: cell-based
Protocol: as §1

[8] = test system: Listeria monocytogenes DCS 490; assay type: cell-based
Protocol: as §1

[9] = test system: Lactobacillus fermentum DCS 573; assay type: cell-based
Protocol: as §1

[10] = test system: Clostridium sporogenes DCS 541; assay type: cell-based
Protocol: as §1

[11] = test system: Clostridium sporogenes DCS 808; assay type: cell-based
Protocol: as §1

[12] = test system: Rhodotorula mucilaginosa H116; assay type: cell-based; conditions: ppm of the active component
Protocol: as §1

[13] = test system: Clostridium sporogenes (spores) DCS 541sp; assay type: cell-based; conditions: ppm of the active component
Protocol: as §1

[14] = test system: Salmonella typhimurium DCS 218; assay type: cell-based; conditions: ppm of the active component
Protocol: as §1

[15] = test system: Listeria monocytogenes DCS 489; assay type: cell-based
Protocol: as §1

[16] = test system: Zygosaccharomyces bailii DCS 538; assay type: cell-based
Protocol: as §1

[17] = test system: Lactobacilllus farciminis DCS 611; assay type: cell-based; conditions: ppm of the active component
Protocol: as §1

[18] = test system: Saccharomyces cerevisiae DCS 599; assay type: cell-based
Protocol: as §1

[19] = test system: Staphylococcus aureus DCS 630; assay type: cell-based
Protocol: as §1

Candida pulcherrima H117 = assay type: cell-based; conditions: ppm of the active component
Protocol: as §1

Leuconostoc spp. DCS 947 = assay type: cell-based; conditions: ppm of the active component
Protocol: as §1

[20] = test system: Lactobacilllus sakei DCS 608; assay type: cell-based, Lactobacillus sakei; conditions: Latilactobacillus sakei, DCS608, ppm of the active component
Protocol: as §1

[21] = Citrobacter freundii, DCS566, ppm of the active component
[22] = Debaryomyces hansenii, DCS605, ppm of the active component
[23] = Klebsiella oxytoca, DCS567, ppm of the active component
[24] = Candida tropicalis, DCS604, ppm of the active component
[25] = Hafnia alvei, DCS613, ppm of the active component
[26] = Bacillus licheniformis, DCS561, ppm of the active component
[27] = Leuconostoc mesenteroides, SSDCS512, ppm of the active component
[28] = Bacillus cereus, DCS500, ppm of the active component
[29] = Listeria monocytogenes, DCS490, ppm of the active component
[30] = Clostridium sporogenes, DCS541, ppm of the active component
[31] = Clostridium sporogenes, DCS808, ppm of the active component
[32] = Salmonella enterica, TYPHIMURIUM
[33] = Listeria monocytogenes, DCS489, ppm of the active component
[34] = Zygosaccharomyces bailii, DCS538, ppm of the active component
[35] = Saccharomyces cerevisiae, DCS599, ppm of the active component
[36] = Staphylococcus aureus, DCS630, ppm of the active component

SMILES: CCCCCCCCCCCC(=O)N[C@@H](CCCNC(=N)N)C(=O)OCC.Cl [LAE, N^α-Lauroyl-L-arginine ethyl ester monohydrochloride]
- MBC [1]: > 166 µg/mL
- MIC [1]: 32.8 µg/mL
- MBC [2, 21]: 21.9 µg/mL
- MIC [2, 21]: 18.2 µg/mL
- increased lag phase ([2]; ppm of the active component): 8.1 ppm
- MBC [3, 22]: 4.3 µg/mL
- MIC [3, 22]: 4.3 µg/mL
- increased lag phase ([3]; ppm of the active component): 4.3 ppm
- MBC [4, 23]: 41 µg/mL
- MIC [4, 23]: 32.8 µg/mL
- increased lag phase ([4]; ppm of the active component): 18.2 ppm
- MBC [5, 24]: 4.3 µg/mL
- MIC [5, 24]: 4.3 µg/mL
- increased lag phase ([5]; ppm of the active component): 4.3 ppm
- MBC (Hafnia alvei DCS 613; [25]): 27.4 µg/mL
- MIC (Hafnia alvei DCS 613; [25]): 21.9 µg/mL
- increased lag phase (Hafnia alvei DCS 613; ppm of the active component): 10.5 ppm
- MBC [6, 26]: 14.6 µg/mL
- MIC [6, 26]: 14.6 µg/mL
- increased lag phase ([6]; ppm of the active component): 4.3 ppm
- MBC [7, 27]: > 166 µg/mL
- MIC [7, 27]: 41 µg/mL
- increased lag phase ([7]; ppm of the active component): 32.8 ppm
- MBC (Bacillus cereus DCS 500; [28]): 14.6 µg/mL
- MIC (Bacillus cereus DCS 500; [28]): 12.1 µg/mL
- increased lag phase (Bacillus cereus DCS 500; ppm of the active component): 6.5 ppm
- MBC [8, 29]: 12.2 µg/mL
- MIC [8, 29]: 12.1 µg/mL
- increased lag phase ([8]; ppm of the active component): 8.1 ppm
- MBC ([9]; DCS573, ppm of the active component): > 166 µg/mL
- MIC ([9]; Limosilactobacillus reuteri, DCS573, ppm of the active component): 73.8 µg/mL
- increased lag phase ([9]; ppm of the active component): 73.8 ppm
- MBC [10, 30]: 9.7 µg/mL
- MIC [10, 30]: 9.7 µg/mL
- increased lag phase ([10]; ppm of the active component): 9.7 ppm
- MBC [11, 31]: 9.7 µg/mL
- MIC [11, 31]: 9.7 µg/mL
- increased lag phase ([11]; ppm of the active component): 9.7 ppm
- MBC ([12]; Rhodotorula mucilaginosa): 6.5 µg/mL
- MIC ([12]; Rhodotorula mucilaginosa): 6.5 µg/mL
- increased lag phase [12]: 4.3 ppm
- MBC ([13]; Clostridium sporogenes): 14.6 µg/mL
- MIC ([13]; Clostridium sporogenes): 9.7 µg/mL
- increased lag phase [13]: 9.7 ppm
- MBC [14, 32]: 49.2 µg/mL
- MIC [14, 32]: 32.8 µg/mL
- increased lag phase [14]: 12.1 ppm
- MBC [15, 33]: 14.6 µg/mL
- MIC [15, 33]: 12.1 µg/mL
- increased lag phase ([15]; ppm of the active component): 9.7 ppm
- MBC [16, 34]: 6.5 µg/mL
- MIC [16, 34]: 6.5 µg/mL
- increased lag phase ([16]; ppm of the active component): 4.3 ppm
- MBC [17]: > 166 µg/mL
- MIC [17]: 49.2 µg/mL
- increased lag phase [17]: 49.2 ppm
- MBC [18, 35]: 14.6 µg/mL
- MIC [18, 35]: 14.6 µg/mL
- increased lag phase ([18]; ppm of the active component): 14.6 ppm
- MBC [19, 36]: 18.3 µg/mL
- MIC [19, 36]: 14.6 µg/mL
- increased lag phase ([19]; ppm of the active component): 14.6 ppm
- MBC (Candida pulcherrima H117; Metschnikowia pulcherrima): 14.6 µg/mL
- MIC (Candida pulcherrima H117; Metschnikowia pulcherrima): 9.7 µg/mL
- increased lag phase (Candida pulcherrima H117): 6.5 ppm
- MBC (Leuconostoc spp. DCS 947; Leuconostoc): > 166 µg/mL
- MIC (Leuconostoc spp. DCS 947; Leuconostoc): 32.8 µg/mL
- increased lag phase (Leuconostoc spp. DCS 947): 32.8 ppm
- MBC [20]: > 166 µg/mL
- MIC [20]: 32.8 µg/mL
